Experiment: recombinant barcode read abundance after kanamycin selection (control-corrected) (log10(CPM+1)); higher = more efficient recombination; sequences stand for … in AGTGCAGAGAAAATCGGCCAGTTTTCTCTGCCTGCAGTCCGCATGCCGT…AGATTTATGCAGCGGACTGCCTTTCTCCCAAAGTGATAAACCGGACAGTATCATGGACCGGTTTTCCCGGTAATCCGTATTTGCAAGGTTGGTTTCACT; site = the 11-nt target
Procedure, shortened: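 IS621 bridge RNA target-binding loops were paired with targets in a pooled library tested in E. coli. After co-electroporation with a donor plasmid, cells were plated in two replicates on chloramphenicol/ampicillin LB agar (control) and on chloramphenicol/ampicillin/kanamycin carrying 0.1 mM IPTG. Barcodes at recombinant junctions were counted as counts per million, averaged and control-corrected to give recombination efficiency. Values are log10(CPM+1).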
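Also: IS621 recombinase and bridge RNA in Escherichia coli cells.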

Sequence	recombinant barcode read abundance (log10)
GAACCTACTTGGGTTCTAACCTGTTGCCG (site GAGCCTACTAG)	0.172
GAACCTACTTGGGTTCTAACCTGTTGCGA (site GAACCTACTCC)	0.0825
GAACCTACTTGGGTTCTAACCTGTTGCGA (site GAACCTACTTC)	1.87
GAACCTCCTTGGGTTCTAACCTGTTGCAT (site GAACCTCCTAT)	1.94
GAACCTCCTTGGGTTCTAACCTGTTGCAT (site TGCGTAACTTG)	0.0548
GAACGACCTTGGGTTCTAACCTGTTGCTG (site GAACGACCTAA)	0.0602
GAACGACCTTGGGTTCTAACCTGTTGCTG (site GAACGACCTCA)	1.16
GAACGATCTTGGGTTCTAACCTGTTGCCT (site GAACCTTCTAG)	0.148
GAACGATCTTGGGTTCTAACCTGTTGCCT (site GAACGATCTAG)	0.397
GAACGCTCTTGGGTTCTAACCTGTTGCCA (site AGGTCTACTAA)	0.0972
GAACGCTCTTGGGTTCTAACCTGTTGCCA (site GAACGCTCTTG)	0.265
GAACTTGCTTGGGTTCTAACCTGTTGCCT (site GAACTTGCTAG)	1.24
GAACTTGCTTGGGTTCTAACCTGTTGCCT (site GCCCTTGCTAG)	0.176
GAAGAGACTTGGGTTCTAACCTGTTGCCT (site GAAAACACTAG)	0.0941
GAAGAGACTTGGGTTCTAACCTGTTGCCT (site GAAGAGACTAG)	1.57
GAAGCATCTTGGGTTCTAACCTGTTGCCT (site GAAGCATCTAG)	1.54

Sequence	recombinant barcode read abundance (log10)
GAAGCATCTTGGGTTCTAACCTGTTGCCT (site GATGCCTCTAG)	0.123
GAAGGGCCTTGGGTTCTAACCTGTTGCCT (site GAAGAGCCTAG)	0.202
GAAGGGCCTTGGGTTCTAACCTGTTGCCT (site GAAGCGCCTAG)	0.225
GAAGGGCCTTGGGTTCTAACCTGTTGCCT (site GAAGGGCCTAG)	0.723
GAAGGGCCTTGGGTTCTAACCTGTTGCCT (site GAAGTGCCTAG)	0.0531
GAAGTACCTTGGGTTCTAACCTGTTGCCT (site AAAGTACCTAG)	0.881
GAAGTACCTTGGGTTCTAACCTGTTGCCT (site CAAGTACCTAG)	0.275
GAAGTACCTTGGGTTCTAACCTGTTGCCT (site GAAGTACCTAG)	1.92
GAAGTACCTTGGGTTCTAACCTGTTGCCT (site TAAGTACCTAG)	0.873
GAAGTCACTTGGGTTCTAACCTGTTGCCT (site GAAGTCACTAG)	1.99
GAAGTCACTTGGGTTCTAACCTGTTGCCT (site TAAGTCACTAG)	1.6
GAAGTCTCTTGGGTTCTAACCTGTTGCCT (site GAAGTCTCTAG)	2.59
GAAGTCTCTTGGGTTCTAACCTGTTGCCT (site GTAGTCCCTAG)	0.0661
GAATCGACTTGGGTTCTAACCTGTTGCCT (site AGGGTACCTCT)	0.192
GAATCGACTTGGGTTCTAACCTGTTGCCT (site GAATCGACTAG)	0.421
GAATCTTCTTGGGTTCTAACCTGTTGCTT (site CAATCGTCTAA)	0.0978

Reference: the supplement of paper PMC11208160
